The source of these data is patent US20240293579A1, “Composition Comprising Trim31 and Rhbdf2 for Treatment of NAFLD/NASH” (CHONGQING MEIPULAN TECHNOLOGY CO., LTD, priority 2021, published 2024).

Counter-ions that a name gives are not always drawn.

The subject of one assay is TRIM31 mRNA. Briefly: TRIM31 mRNA expression by RT-qPCR in PA/OA-induced L02 cells. Type of assay: cell-based, human. The settings on record: 100 μmol/L compound; PA/OA-induced L02 cells; RT-qPCR. The protocol:
Palmitic acid/oleic acid (PA/OA) was used to induce the decrease of TRIM31 mRNA expression in human hepatocyte L02 cells. The cells were divided into control group and drug group. The drug group was treated with a concentration of 100 μmol/L compound, and the expression level of TRIM31 mRNA was detected by RT-qPCR. The expression level of TRIM31 mRNA in the drug group divided by that in the control group (Qdrug/Qctrl) was used to evaluate the ability of the compounds to promote TRIM31 expression. […]
Take `Oc1cc(O)c2c(c1)O[C@H](c1cc(O)c(O)c(O)c1)[C@H](O)C2` [(−)-epigallocatechin]: the “Qdrug/Qctrl (TRIM31 mRNA expression level, drug group divided by control group)” value turned out to be 2.71 fold.
As to `Oc1ccc([C@H]2Oc3cc(O)cc(O)c3C[C@@H]2O)cc1` [Afzelechin], the “Qdrug/Qctrl (TRIM31 mRNA expression level, drug group divided by control group)” value amounted to 3.12 fold.
The same measure, in the same setting: the figure for `CC1(C)[C@@H](O[C@H]2O[C@H](C(=O)O)[C@@H](O)[C@H](O)[C@H]2O[C@@H]2O[C@H](C(=O)O)[C@@H](O)[C@H](O)[C@H]2O)CC[C@]2(C)[C@H]3C(=O)C=C4[C@@H]5C[C@@](C)(C(=O)O)CC[C@]5(C)CC[C@@]4(C)[C@]3(C)CC[C@@H]12` [Glycyrrhizinic acid] is 1.86 fold.
Same read-out and setting: the figure for `COc1cc2c(cc1O)CC[n+]1cc3c(OC)c(OC)ccc3cc1-2` [Jateorhizine] is 1.72 fold.
The same measure, in the same setting: the result for `O=C1C[C@@H](c2ccc(O)cc2)Oc2cc(O)ccc21` [Liquiritigenin] reads 2.79 fold; that for `CC(C)=CCc1c(-c2ccc(O)cc2O)oc2c(CC=C(C)C)c(O)cc(O)c2c1=O` [Mulberrin], 3.74 fold; that for `O[C@H]1CCN2Cc3ccccc3N=C12` [Peganine], 1.34 fold.
Consider `C[C@H]1CC[C@@H]2N(C1)C[C@H]1[C@@H]3C[C@H]4[C@@H](C[C@H](O)[C@H]5C[C@@H](O)CC[C@@]54C)[C@@H]3CC[C@@H]1[C@]2(C)O` [Peimine], for which the “Qdrug/Qctrl (TRIM31 mRNA expression level, drug group divided by control group)” value is on record as 1.31 fold.

The assay is the same for the next values; noted with them: Homo sapiens, L02, read-out: Qdrug/Qctrl (TRIM31 mRNA expression level, drug group divided by control group).
`O=c1cc(-c2ccc(O)cc2)oc2cc(O)cc(O)c12` [Apigenin]: the fold induction at 100 µM amounted to 3.21.
Still for that read-out and setting: the result for `O=c1cc(-c2ccccc2)oc2cc(O)c(O)c(O)c12` [Baicalein] reads 3.53.
Same read-out and setting: the figure for `COc1ccc2cc3[n+](cc2c1OC)CCc1cc2c(cc1-3)OCO2` [Berberine, reference compound] is 1.32; for `COC(=O)c1cc(OC)c2c(c1-c1c(C(=O)OC)cc(OC)c3c1OCO3)OCO2` [Bifendate, reference compound] it is 1.76; for `CN1Cc2c(ccc3c2OCO3)[C@@H]2[C@H]1c1cc3c(cc1C[C@@H]2O)OCO3` [Chelidonine] it is 1.53.
Consider `O=C(/C=C/c1ccc(O)c(O)c1)O[C@@H]1C[C@](O)(C(=O)O)C[C@@H](O)[C@H]1O` [Chlorogenic acid], for which the fold induction at 100 µM was 2.42.
On the same count and under the same terms, the figure for `O=c1cc(-c2ccccc2)oc2cc(O)cc(O)c12` [Chrysin] is 2.89; for `COc1cc2c(c(OC)c1OC)-c1ccc(OC)c(=O)cc1[C@@H](NC(C)=O)CC2` [Colchicine, reference compound] it is 1.32; for `COc1cc(/C=C/C(=O)CC(=O)/C=C/c2ccc(O)c(OC)c2)ccc1O` [Curcumin] it is 2.83.
Still for that read-out and setting: the result for `Oc1cc(O)c2cc(O)c(-c3ccc(O)c(O)c3)[o+]c2c1` [Cyanidin] reads 2.97; that for `C=C(CO)C(=O)O[C@H]1CC(=C)[C@@H]2C[C@H](O)C(=C)[C@@H]2[C@H]2OC(=O)C(=C)[C@@H]21` [Cynaropicrin], 3.35; that for `O=c1c(-c2ccc(O)cc2)coc2cc(O)ccc12` [Daidzein], 2.66.
On the same count and under the same terms, the result for `O=C1c2c(O)cc(O)cc2O[C@H](c2ccc(O)c(O)c2)[C@H]1O` [Dihydroquercetin] reads 3.32; that for `Oc1cc(O)c2c(c1)O[C@H](c1ccc(O)c(O)c1)[C@H](O)C2` [Epicatechin], 2.92; that for `COc1cc(/C=C/C(=O)O)ccc1O` [Ferulic acid], 2.51.
Consider `COc1ccc([C@@H]2CC(=O)c3c(O)cc(O)cc3O2)cc1O` [Hesperetin], for which the fold induction at 100 µM was 3.06.
`COc1cc(-c2oc3cc(O)cc(O)c3c(=O)c2O)ccc1O` [Isorhamnetin]: the fold induction at 100 µM is 2.77.
Still for that read-out and setting: the result for `O=c1c(O)c(-c2ccc(O)cc2)oc2cc(O)cc(O)c12` [Kaempferol] reads 3.26; that for `COc1cc2nccc(Oc3ccc(NC(=O)NC4CC4)c(Cl)c3)c2cc1C(N)=O` [Lenvatinib, reference compound], 2.75; that for `COc1cc(C(=O)OCCCCNC(=N)N)cc(OC)c1O` [Leonurine], 1.51.
Same read-out and setting: the result for `CN(C)C(=N)N=C(N)N` [Metformin, reference compound] reads 2.45; that for `O=c1c(O)c(-c2cc(O)c(O)c(O)c2)oc2cc(O)cc(O)c12` [Myricetin], 3.25.
Consider `O=C1C[C@@H](c2ccc(O)cc2)Oc2cc(O)cc(O)c21` [Naringenin], for which the fold induction at 100 µM stood at 3.02.
Turning to `CC(C)(S)[C@@H](N)C(=O)O` [Penicillamine, reference compound], the fold induction at 100 µM was determined as 1.72.
The same measure, in the same setting: the figure for `O=C(/C=C/C=C/c1ccc2c(c1)OCO2)N1CCCCC1` [Piperine] is 1.8; for `Oc1ccc(C=Cc2cc(O)cc(O)c2)cc1` [Resveratrol] it is 3.66.
On to `CC[C@H]1CN2CC[C@]3(C(=O)Nc4ccccc43)[C@@H]2C[C@@H]1/C(=C\OC)C(=O)OC` [Rhynchophylline], for which the fold induction at 100 µM stood at 1.92.

The same assay, now with this note: Homo sapiens; 100 μmol/L compound; PA/OA-induced L02 cells; RT-qPCR; read-out: Qdrug/Qctrl (TRIM31 mRNA expression level, drug group divided by control group).
As for `COc1cc2c(c3c1c(=O)c1ccccc1n3C)C=CC(C)(C)O2` [Acronycine], the fold induction at 100 µM stood at 1.43.
On the same count and under the same terms, the figure for `C[S+](CC[C@H](N)C(=O)[O-])C[C@H]1O[C@@H](n2cnc3c(N)ncnc32)[C@H](O)[C@@H]1O` (stereo partly shown) [Ademetionine, reference compound] is 2.55; for `O=c1cc(-c2ccc(O)cc2)oc2cc(O[C@@H]3O[C@H](CO)[C@@H](O)[C@H](O)[C@H]3O[C@@H]3OC[C@](O)(CO)[C@H]3O)cc(O)c12` [Apiin] it is 3.22; for `O=C(O)[C@H]1O[C@@H](Oc2cc3oc(-c4ccccc4)cc(=O)c3c(O)c2O)[C@H](O)[C@@H](O)[C@@H]1O` [Baicalin] it is 2.98.
On the same count and under the same terms, the result for `COC(=O)c1cc(OC)c2c(c1-c1c(CO)cc(OC)c3c1OCO3)OCO2` [Bicyclol, reference compound] reads 2.45.
For the compound `CC[C@@]1(O)C(=O)OCc2c1cc1n(c2=O)Cc2cc3ccccc3nc2-1` [Camptothecin], the fold induction at 100 µM was 2.13.
Same read-out and setting: the figure for `C[C@H](CCC(=O)O)[C@H]1CC[C@H]2[C@@H]3[C@H](O)C[C@@H]4C[C@H](O)CC[C@]4(C)[C@H]3CC[C@]12C` [Chenodeoxycholic acid, reference compound] is 2.54; for `O=C(/C=C/c1ccc(O)c(O)c1)O[C@@H]1C[C@@](OC(=O)/C=C/c2ccc(O)c(O)c2)(C(=O)O)C[C@@H](O)[C@@H]1O` [Cynarin] it is 2.56.
For `Oc1cc(O)c2cc(O)c(-c3cc(O)c(O)c(O)c3)[o+]c2c1` [Delphinidin], the fold induction at 100 µM was 2.49.
For `COc1ccc(-c2cc(=O)c3c(O)cc(O)cc3o2)cc1O` [Diosmetin], the fold induction at 100 µM was 3.41.
The same measure, in the same setting: the result for `O=c1c(O)c(-c2ccccc2)oc2cc(O)cc(O)c12` [Galangin] reads 2.81.
The same measure, in the same setting: the figure for `O=c1c(-c2ccc(O)cc2)coc2cc(O)cc(O)c12` [Genistein] is 2.73; for `CC1(C)[C@@H](O[C@H]2O[C@H](C(=O)O)[C@@H](O)[C@H](O)[C@H]2O[C@@H]2O[C@H](C(=O)O)[C@@H](O)[C@H](O)[C@H]2O)CC[C@]2(C)[C@H]3C(=O)C=C4[C@@H]5C[C@@](C)(C(=O)O)CC[C@]5(C)CC[C@@]4(C)[C@]3(C)CC[C@@H]12` [Glycyrrhizic Acid Monoammonium Salt] it is 1.72; for `COc1ccc(-c2oc3c(CC=C(C)C)c(O[C@@H]4O[C@H](CO)[C@@H](O)[C@H](O)[C@H]4O)cc(O)c3c(=O)c2O[C@@H]2O[C@@H](C)[C@H](O)[C@@H](O)[C@H]2O)cc1` [Icariin] it is 3.33.
For `O=c1c(O[C@@H]2O[C@@H](CO)[C@H](O)[C@H]2O)c(-c2ccc(O)cc2)oc2cc(O)cc(O)c12` [Juglanin], the fold induction at 100 µM is 2.95.
The same measure, in the same setting: the figure for `Nc1cccc2c1CN(C1CCC(=O)NC1=O)C2=O` (stereo not shown) [Lenalidomide, reference compound] is 1.43.
The same measure, in the same setting: the figure for `O=c1cc(-c2ccc(O)c(O)c2)oc2cc(O)cc(O)c12` [Luteolin] is 3.09.
Turning to `O[C@H]1[C@H]2c3cc4c(cc3CN3CCC(=C[C@@H]1O)[C@H]23)OCO4` [Lycorine], the fold induction at 100 µM turned out to be 2.26.
Still for that read-out and setting: the result for `COc1ccc2c(c1O)-c1c(O)c(OC)cc3c1[C@H](C2)[N+](C)(C)CC3` [Magnoflorine] reads 1.38; that for `O=c1c(O)c(-c2ccc(O)cc2O)oc2cc(O)cc(O)c12` [Morin], 2.86.
Turning to `O=C1CCC[C@@H]2[C@H]3CCC[N+]4([O-])CCC[C@@H](CN12)[C@@H]34` (stereo partly shown) [Oxymatrine], the fold induction at 100 µM was found to be 1.15.
On the same count and under the same terms, the figure for `Oc1ccc(-c2[o+]c3cc(O)cc(O)c3cc2O)cc1` [Pelargonidin] is 2.78; for `Nc1cccc2c1C(=O)N(C1CCC(=O)NC1=O)C2=O` (stereo not shown) [Pomalidomide, reference compound] it is 1.49.
Still for that read-out and setting: the figure for `O=c1c(-c2ccc(O)cc2)coc2c([C@@H]3O[C@H](CO)[C@@H](O)[C@H](O)[C@H]3O)c(O)ccc12` [Puerarin] is 2.72.
The same measure, in the same setting: the result for `O=c1c(O)c(-c2ccc(O)c(O)c2)oc2cc(O)cc(O)c12` [Quercetin] reads 3.38; that for `CNC(=O)c1cc(Oc2ccc(NC(=O)Nc3ccc(Cl)c(C(F)(F)F)c3)c(F)c2)ccn1` [Regorafenib, reference compound], 2.79.
